Patent publication EP0171362A1, “Aminoalkyl penem compounds” (priority 1984, dated 1986)
≈ marks a conversion by molar mass, not a printed value.

How the values were obtained:
Type in all cases: cell-based
[1] = tested on: Streptococcus pneumoniae III/84; assay: In vitro antibiotic activity (MIC)
[2] = tested on: Staphylococcus aureus A 124; assay: In vitro antibiotic activity (MIC); conditions: A124
[3] = tested on: Serratia marcescens 344; assay: In vitro antibiotic activity (MIC)
[4] = tested on: Pseudomonas aeruginosa 143738R; assay: In vitro antibiotic activity (MIC)
[5] = tested on: Staphylococcus aureus 10 B; assay: In vitro antibiotic activity (MIC)
[6] = tested on: Pseudomonas aeruginosa K 799/61; assay: In vitro antibiotic activity (MIC); conditions: K799/61, read-out: in vitro MIC
[7] = tested on: Proteus morganii 2359; assay: In vitro antibiotic activity (MIC); conditions: Morganella morganii
[8] = tested on: Enterobacter cloacae ATCC 13074; assay: In vitro antibiotic activity (MIC); conditions: ATCC13074
[9] = tested on: Escherichia coli 2018; assay: In vitro antibiotic activity (MIC)
[10] = tested on: Escherichia coli B-1385; assay: In vitro antibiotic activity (MIC); conditions: B1385
[11] = tested on: Escherichia coli 205 R + TEM; assay: In vitro antibiotic activity (MIC); conditions: read-out: in vitro MIC
[12] = tested on: Enterobacter cloacae P 99; assay: In vitro antibiotic activity (MIC); conditions: P99, read-out: in vitro MIC
[13] = tested on: Pseudomonas aeruginosa ATCC 12055; assay: In vitro antibiotic activity (MIC); conditions: ATCC12055
[14] = tested on: Staphylococcus aureus Wood 46; assay: In vitro antibiotic activity (MIC); conditions: WOOD46
[15] = tested on: Escherichia coli UB 1005; assay: In vitro antibiotic activity (MIC); conditions: UB1005
Text: Ueberraschenderweise weisen die erfindungsgemässen Penem-Verbindungen gegenüber strukturverwandten und vorbekannten Penemen eine überlegene Wirksamkeit auf. Dies wird deutlich beim Vergleich der MIC-Daten (minimum inhibitory concentrations, in vitro gemessen) von (5R,6S)-2-[(2R,S)-2-Amino-but-1-yl)-6-[(lR)-1-hydroxyäthyl]-2-penem-3-carbonsäure (Verbindung A) mit bekannten homologen Penemen, die in Position 2 des Penem-Ringes einen 4-Aminobutyl- bzw. 1-Aminobutyl-Substituenten tragen, nämlich (5R,6S)-2-(4-Aminobutyl)-6-hydroxymethyl-2-penem-3-carbonsäure (Europäische Patentanmeldung Nr. 82113, Verbindung B) und (5R,6S)-2-(1-Aminobutyl)-6-hydroxymethyl-2-penem-3-carbonsäure (Europäische Patentanmeldung Nr. 125 208, Verbindung C). Die Ergebnisse sind in der folgenden Tabelle 1 zusammengefasst.

[16] = tested on: Clostridium perfringens 194 AN; assay: microbe, parasite or virus in culture; conditions: read-out: in vitro MIC
[17] = tested on: Escherichia coli 16; assay: In vitro antibiotic activity (MIC)
[18] = tested on: Haemophilus influenzae 24; assay: In vitro antibiotic activity (MIC)
[19] = tested on: Neisseria meningitidis 1316; assay: In vitro antibiotic activity (MIC)
[20] = tested on: Escherichia coli DC 2; assay: In vitro antibiotic activity (MIC); conditions: DC2
[21] = tested on: Staphylococcus aureus 2999i+p+; assay: In vitro antibiotic activity (MIC)
[22] = tested on: Neisseria gonorrhoeae 1317/4; assay: In vitro antibiotic activity (MIC)
[23] = tested on: Streptococcus pyogenes Aronson 1129; assay: In vitro antibiotic activity (MIC); conditions: ARONSON1129
[24] = tested on: Bacteroides fragilis L 01; assay: In vitro antibiotic activity (MIC); conditions: L01
[25] = tested on: Proteus mirabilis 774; assay: In vitro antibiotic activity (MIC)
[26] = tested on: Escherichia coli 205; assay: In vitro antibiotic activity (MIC)
[27] = tested on: Klebsiella pneumoniae 327; assay: In vitro antibiotic activity (MIC)

Structure (SMILES)	MIC [1]	MIC [2]	MIC [3]	MIC [5]	MIC [6]	MIC [7]	MIC [8]	MIC [11]	MIC [12]	MIC [13]	MIC [15]	MIC [16]	MIC [17]	MIC [20]	MIC [21]	MIC [23]	MIC [24]	MIC [25]	MIC [26]	MIC [27]	further results
CCCC(N)C1=C(C(=O)O)N2C(=O)[C@H](CO)[C@H]2S1 (stereo partly drawn) [Verbindung C, (5R,6S)-2-(1-Aminobutyl)-6-hydroxymethyl-2-penem-3-carbonsäure]	0.05 µg/mL (≈ 0.184 µM)	0.5 µg/mL (≈ 1.84 µM)	> 64 µg/mL	0.05 µg/mL (≈ 0.184 µM)	64 µg/mL (≈ 235 µM)	> 64 µg/mL	> 64 µg/mL	64 µg/mL (≈ 235 µM)	64 µg/mL (≈ 235 µM)	> 64 µg/mL	64 µg/mL (≈ 235 µM)	64 µg/mL (≈ 235 µM)	64 µg/mL (≈ 235 µM)	64 µg/mL (≈ 235 µM)	0.05 µg/mL (≈ 0.184 µM)	1 µg/mL (≈ 3.67 µM)	16 µg/mL (≈ 58.8 µM)	> 64 µg/mL	64 µg/mL (≈ 235 µM)	32 µg/mL (≈ 118 µM)	MIC [4]: > 64 µg/mL; MIC [9]: 32 µg/mL (≈ 118 µM); MIC [10]: 64 µg/mL (≈ 235 µM); MIC [14]: 0.05 µg/mL (≈ 0.184 µM); MIC [18]: 32 µg/mL (≈ 118 µM); MIC [19]: 1 µg/mL (≈ 3.67 µM); MIC [22]: 2 µg/mL (≈ 7.34 µM)
CCC(N)CC1=C(C(=O)O)N2C(=O)[C@H]([C@@H](C)O)[C@H]2S1 (stereo partly drawn) [Verbindung A, (5R,6S)-2-[(2R,S)-2-Amino-but-1-yl)-6-[(lR)-1-hydroxyäthyl]-2-penem-3-carbonsäure]	0.05 µg/mL (≈ 0.175 µM)	0.1 µg/mL (≈ 0.349 µM)	8 µg/mL (≈ 27.9 µM)	0.02 µg/mL (≈ 0.0698 µM)	4 µg/mL (≈ 14 µM)	8 µg/mL (≈ 27.9 µM)	2 µg/mL (≈ 6.98 µM)	2 µg/mL (≈ 6.98 µM)	0.5 µg/mL (≈ 1.75 µM)	32 µg/mL (≈ 112 µM)	2 µg/mL (≈ 6.98 µM)	0.2 µg/mL (≈ 0.698 µM)	1 µg/mL (≈ 3.49 µM)	16 µg/mL (≈ 55.9 µM)	0.05 µg/mL (≈ 0.175 µM)	0.05 µg/mL (≈ 0.175 µM)	0.5 µg/mL (≈ 1.75 µM)	2 µg/mL (≈ 6.98 µM)	1 µg/mL (≈ 3.49 µM)	1 µg/mL (≈ 3.49 µM)	MIC [4]: 64 µg/mL (≈ 224 µM); MIC [9]: 0.5 µg/mL (≈ 1.75 µM); MIC [10]: 1 µg/mL (≈ 3.49 µM); MIC [14]: 0.02 µg/mL (≈ 0.0698 µM); MIC [18]: 16 µg/mL (≈ 55.9 µM); MIC [19]: 1 µg/mL (≈ 3.49 µM); MIC [22]: 0.5 µg/mL (≈ 1.75 µM)
NCCCCC1=C(C(=O)O)N2C(=O)[C@H](CO)[C@H]2S1 [Verbindung B, (5R,6S)-2-(4-Aminobutyl)-6-hydroxymethyl-2-penem-3-carbonsäure]	0.5 µg/mL (≈ 1.84 µM)	–	16 µg/mL (≈ 58.8 µM)	0.5 µg/mL (≈ 1.84 µM)	4 µg/mL (≈ 14.7 µM)	16 µg/mL (≈ 58.8 µM)	16 µg/mL (≈ 58.8 µM)	8 µg/mL (≈ 29.4 µM)	4 µg/mL (≈ 14.7 µM)	8 µg/mL (≈ 29.4 µM)	4 µg/mL (≈ 14.7 µM)	4 µg/mL (≈ 14.7 µM)	4 µg/mL (≈ 14.7 µM)	8 µg/mL (≈ 29.4 µM)	0.5 µg/mL (≈ 1.84 µM)	0.5 µg/mL (≈ 1.84 µM)	0.5 µg/mL (≈ 1.84 µM)	16 µg/mL (≈ 58.8 µM)	4 µg/mL (≈ 14.7 µM)	4 µg/mL (≈ 14.7 µM)	–
